Measured values from patent US11053213B2, “Pharmaceutical compounds” (ALMAC DISCOVERY LIMITED, priority 2016, dated 2021).

Molecular target: USP19 (Homo sapiens (Human), UniProt O94966)
Assay: USP19 activity assay (fluorescence polarisation, Ubiquitin-Lys-TAMRA substrate)
Type: biochemical
Details: full-length USP19 2.5 nM, 30 min pre-incubation, Ub substrate 500 nM; average of at least two duplicate experiments
Description: Unless otherwise stated, all other reagents were purchased from Sigma. Enzymatic reactions were conducted in black flat bottom polystyrene 384-well plates (Nunc) and 30 μL total volume. […] Inhibitors were stored as 10 mM DMSO stocks in an inert environment (low humidity, dark, low oxygen, room temperature) using the Storage Pod System and serial dilutions were prepared in buffer just prior to the assay (from 200 μM to 2 pM, 8-18 data point curve). Following incubation at RT for 30 min, the enzymatic reactions were initiated by dispensing the Ub substrate (500 nM, 10 μL). FP was measured every 15 min over a period of 90 min (within the linear range of the assay) using a Synergy 4 plate reader (BioTek) exciting at 530 nm and measuring the amount of parallel and perpendicular light at 575 nm. The FP signal was subsequently normalised to the no compound control.

Sequence of USP19 (O94966 whole entry): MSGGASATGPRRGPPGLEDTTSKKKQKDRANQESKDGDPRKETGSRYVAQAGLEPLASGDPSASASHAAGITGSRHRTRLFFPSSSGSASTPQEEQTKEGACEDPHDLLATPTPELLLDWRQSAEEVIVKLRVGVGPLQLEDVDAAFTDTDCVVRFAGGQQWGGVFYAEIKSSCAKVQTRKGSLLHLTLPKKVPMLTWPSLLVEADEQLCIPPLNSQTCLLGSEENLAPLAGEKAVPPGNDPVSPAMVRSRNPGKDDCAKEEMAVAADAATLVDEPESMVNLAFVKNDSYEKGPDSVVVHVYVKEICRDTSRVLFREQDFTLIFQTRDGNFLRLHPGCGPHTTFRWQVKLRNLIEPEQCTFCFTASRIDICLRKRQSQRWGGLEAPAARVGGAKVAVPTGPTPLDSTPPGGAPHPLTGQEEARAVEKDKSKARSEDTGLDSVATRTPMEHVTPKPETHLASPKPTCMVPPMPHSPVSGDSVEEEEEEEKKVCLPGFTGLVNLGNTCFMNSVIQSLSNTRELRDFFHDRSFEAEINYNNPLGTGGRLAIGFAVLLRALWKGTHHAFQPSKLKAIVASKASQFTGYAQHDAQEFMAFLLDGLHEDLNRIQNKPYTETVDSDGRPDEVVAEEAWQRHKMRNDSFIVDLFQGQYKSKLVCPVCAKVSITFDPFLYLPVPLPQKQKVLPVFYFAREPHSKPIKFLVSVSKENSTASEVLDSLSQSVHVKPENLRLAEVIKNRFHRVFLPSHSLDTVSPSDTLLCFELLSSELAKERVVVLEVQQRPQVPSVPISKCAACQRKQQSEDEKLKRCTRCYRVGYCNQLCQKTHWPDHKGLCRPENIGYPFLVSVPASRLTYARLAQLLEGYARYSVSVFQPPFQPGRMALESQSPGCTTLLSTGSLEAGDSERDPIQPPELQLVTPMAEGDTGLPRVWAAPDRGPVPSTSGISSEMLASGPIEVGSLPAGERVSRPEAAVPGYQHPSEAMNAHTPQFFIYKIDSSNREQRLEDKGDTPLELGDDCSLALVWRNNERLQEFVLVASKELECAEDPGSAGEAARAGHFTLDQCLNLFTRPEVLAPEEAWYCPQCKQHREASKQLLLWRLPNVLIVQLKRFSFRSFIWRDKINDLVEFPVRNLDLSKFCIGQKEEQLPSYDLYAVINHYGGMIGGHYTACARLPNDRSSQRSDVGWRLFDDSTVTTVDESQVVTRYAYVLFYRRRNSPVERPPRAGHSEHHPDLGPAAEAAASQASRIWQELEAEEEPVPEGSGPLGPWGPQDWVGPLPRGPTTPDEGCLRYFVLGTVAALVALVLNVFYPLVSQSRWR

IC50 [µM] | SMILES
< 0.5 | C[C@H](CC1CCCCC1)C(=O)N1CCC(O)(Cn2cnc(-c3ccccc3)cc2=O)C(C)(C)C1 (mixture of isomers) [Example 50, 3-(((R)-1-((R)-3-Cyclohexyl-2-methylpropanoyl)-4-hydroxy-3,3-dimethylpiperidin-4-yl)methyl)-6-phenylpyrimidin-4(3H)-one and 3-(((S)-1-((R)-3-Cyclohexyl-2-methylpropanoyl)-4-hydroxy-3,3-dimethylpiperidin-4-yl)methyl)-6-phenylpyrimidin-4(3H)-one]
< 0.5 | CC(C)N(C)C(=O)c1cn(CC2(O)CCN(C(=O)[C@H](C)CC3CCCCC3)CC2(C)C)c(=O)cc1-c1ccccc1 (mixture of isomers) [Example 73, 1-(((R)-1-((R)-3-Cyclohexyl-2-methylpropanoyl)-4-hydroxy-3,3-dimethylpiperidin-4-yl)methyl)-N-isopropyl-N-methyl-6-oxo-4-phenyl-1,6-dihydropyridine-3-carboxamide and 1-(((S)-1-((R)-3-Cyclohexyl-2-methylpropanoyl)-4-hydroxy-3,3-dimethylpiperidin-4-yl)methyl)-N-isopropyl-N-methyl-6-oxo-4-phenyl-1,6-dihydropyridine-3-carboxamide]
5 to 50 | CC(Cc1ccccc1)C(=O)N1CCC(O)(Cn2cnc(-c3ccccc3F)cc2=O)CC1 (racemic) [Example 5, (R,S)-6-(2-Fluorophenyl)-3-((4-hydroxy-1-(2-methyl-3-phenylpropanoyl)piperidin-4-yl)methyl)pyrimidin-4(3H)-one]
0.5 to 5 | CC(C)N(C)C(=O)c1cn(CC2(O)CCN(C(=O)C3(C)CCc4ccccc4C3)CC2)c(=O)cc1-c1ccccc1F (racemic) [Example 14, (R,S)-4-(2-Fluorophenyl)-1-((4-hydroxy-1-(2-methyl-1,2,3,4-tetrahydronaphthalene-2-carbonyl)piperidin-4-yl)methyl)-N-isopropyl-N-methyl-6-oxo-1,6-dihydropyridine-3-carboxamide]
5 to 50 | O=C([C@@H]1C[C@@H]1c1ccccc1)N1CCC(O)(Cn2cnc(-c3ccccc3F)cc2=O)CC1 (racemic) [Example 41, rac-6-(2-Fluorophenyl)-3-((4-hydroxy-1-(cis-2-phenylcyclopropanecarbonyl)piperidin-4-yl)methyl)pyrimidin-4(3H)-one]
5 to 50 | O=C(C(O)CC1CCCCC1)N1CCC(O)(Cn2cnc(-c3ccccc3F)cc2=O)CC1 (racemic) [Example 44, (R,S)-3-((1-(3-Cyclohexyl-2-hydroxypropanoyl)-4-hydroxypiperidin-4-yl)methyl)-6-(2-fluorophenyl)pyrimidin-4(3H)-one]
50 to 250 | O=C(C(F)CC1CCCCC1)N1CCC(O)(Cn2cnc(-c3ccccc3F)cc2=O)CC1 (racemic) [Example 49, (R,S)-3-((1-(3-Cyclohexyl-2-fluoropropanoyl)-4-hydroxypiperidin-4-yl)methyl)-6-(2-fluorophenyl)pyrimidin-4(3H)-one]
5 to 50 | CC(CC1CCC1)C(=O)N1CCC(O)(Cn2cnc(-c3ccccc3F)cc2=O)CC1 (racemic) [Example 57, (R,S)-3-((1-(3-Cyclobutyl-2-methylpropanoyl)-4-hydroxypiperidin-4-yl)methyl)-6-(2-fluorophenyl)pyrimidin-4(3H)-one]
5 to 50 | CC(CC1CCCCCC1)C(=O)N1CCC(O)(Cn2cnc(-c3ccccc3F)cc2=O)CC1 (racemic) [Example 58, (R,S)-3-((1-(3-Cycloheptyl-2-methylpropanoyl)-4-hydroxypiperidin-4-yl)methyl)-6-(2-fluorophenyl)pyrimidin-4(3H)-one]
5 to 50 | CC1(C)CN(C(=O)c2c[nH]nc2C2CCCCC2)CCC1(O)Cn1cnc(-c2ccccc2F)cc1=O (racemic) [Example 67, (R,S)-3-((1-(3-Cyclohexyl-1H-pyrazole-4-carbonyl)-4-hydroxy-3,3-dimethylpiperidin-4-yl)methyl)-6-(2-fluorophenyl)pyrimidin-4(3H)-one]
5 to 50 | CC1(C)CN(C(=O)CCc2ccccc2)CCC1(O)Cn1cnc(-c2ccccc2F)cc1=O (racemic) [Example 68, (R,S)-6-(2-Fluorophenyl)-3-((4-hydroxy-3,3-dimethyl-1-(3-phenylpropanoyl)piperidin-4-yl)methyl)pyrimidin-4(3H)-one]
5 to 50 | CC(C)CC1(C(=O)N2CCC(O)(Cn3cnc(-c4ccccc4F)cc3=O)C(C)(C)C2)CC1 (racemic) [Example 69, (R,S)-6-(2-Fluorophenyl)-3-((4-hydroxy-1-(1-isobutylcyclopropane-1-carbonyl)-3,3-dimethylpiperidin-4-yl)methyl)pyrimidin-4(3H)-one]
5 to 50 | CC(C)(CC(=O)N1CCC(O)(Cn2cnc(-c3ccccc3F)cc2=O)C(C)(C)C1)c1ccccc1 (racemic) [Example 70, (R,S)-6-(2-Fluorophenyl)-3-((4-hydroxy-3,3-dimethyl-1-(3-methyl-3-phenylbutanoyl)piperidin-4-yl)methyl)pyrimidin-4(3H)-one]
0.5 to 5 | CC1(C)CN(C(=O)CCC2CCCCC2)CCC1(O)Cn1cnc(-c2ccccc2F)cc1=O (racemic) [Example 78, (R,S)-3-((1-(3-Cyclohexylpropanoyl)-4-hydroxy-3,3-dimethylpiperidin-4-yl)methyl)-6-(2-fluorophenyl)pyrimidin-4(3H)-one]
0.5 to 5 | CC(C)N(C)C(=O)c1cn(CC2(O)CCN(C(=O)CCC3CCC3)CC2(C)C)c(=O)cc1-c1ccccc1 (racemic) [Example 79, (R,S)-1-((1-(3-Cyclobutylpropanoyl)-4-hydroxy-3,3-dimethylpiperidin-4-yl)methyl)-N-isopropyl-N-methyl-6-oxo-4-phenyl-1,6-dihydropyridine-3-carboxamide]
5 to 50 | CCCCC(CC)C(=O)N1CCC(O)(Cn2cc(C(=O)N(C)C(C)C)c(-c3ccccc3)cc2=O)CC1 (racemic) [Example 80, (R,S)-1-((1-(2-Ethylhexanoyl)-4-hydroxypiperidin-4-yl)methyl)-N-isopropyl-N-methyl-6-oxo-4-phenyl-1,6-dihydropyridine-3-carboxamide]
50 to 250 | CC1(C(=O)N2CCC(O)(Cn3cnc(-c4ccccc4F)cc3=O)C(C)(C)C2)CCCCC1 (racemic) [Example 81, (R,S)-6-(2-Fluorophenyl)-3-((4-hydroxy-3,3-dimethyl-1-(1-methylcyclohexane-1-carbonyl)piperidin-4-yl)methyl)pyrimidin-4(3H)-one]
50 to 250 | CC1(C)CN(C(=O)CCC2CC2)CCC1(O)Cn1cnc(-c2ccccc2F)cc1=O (racemic) [Example 83, (R,S)-3-((1-(3-Cyclopropylpropanoyl)-4-hydroxy-3,3-dimethylpiperidin-4-yl)methyl)-6-(2-fluorophenyl)pyrimidin-4(3H)-one]
50 to 250 | C[C@H](CC(=O)N1CCC(O)(Cn2cc(Br)c(-c3ccccc3)cc2=O)CC1)c1ccccc1 [Example 1, (R)-5-Bromo-1-((4-hydroxy-1-(3-phenylbutanoyl)piperidin-4-yl)methyl)-4-phenylpyridin-2(1H)-one]
50 to 250 | O=C(CCc1ccccc1)N1CCC(O)(Cn2cnc(-c3ccccc3F)cc2=O)CC1 [Example 2, 6-(2-Fluorophenyl)-3-((4-hydroxy-1-(3-phenylpropanoyl)piperidin-4-yl)methyl)pyrimidin-4(3H)-one]
50 to 250 | O=C(CCC1CCC1)N1CCC(O)(Cn2cnc(-c3ccccc3F)cc2=O)CC1 [Example 3, 3-((1-(3-Cyclobutylpropanoyl)-4-hydroxypiperidin-4-yl)methyl)-6-(2-fluorophenyl)pyrimidin-4(3H)-one]
50 to 250 | O=C(CCC1CCCC1)N1CCC(O)(Cn2cnc(-c3ccccc3F)cc2=O)CC1 [Example 4, 3-((1-(3-Cyclopentylpropanoyl)-4-hydroxypiperidin-4-yl)methyl)-6-(2-fluorophenyl)pyrimidin-4(3H)-one]
5 to 50 | CC(=O)Nc1cccc(-c2cn(CC3(O)CCN(C(=O)C[C@@H](C)c4ccccc4)CC3)c(=O)cc2-c2ccccc2)c1 [Example 6, (R)—N-(3-(1-((4-Hydroxy-1-(3-phenylbutanoyl)piperidin-4-yl)methyl)-6-oxo-4-phenyl-1,6-dihydropyridin-3-yl)phenyl)acetamide]
0.5 to 5 | C[C@H](CC(=O)N1CCC(O)(Cn2cc(-c3cccc(C(N)=O)c3)c(-c3ccccc3)cc2=O)CC1)c1ccccc1 [Example 7, (R)-3-(1-((4-Hydroxy-1-(3-phenylbutanoyl)piperidin-4-yl)methyl)6-oxo-4-phenyl-1,6-dihydropyridin-3-yl)benzamide]
5 to 50 | C[C@H](CC(=O)N1CCC(O)(Cn2cc(-c3ccco3)c(-c3ccccc3)cc2=O)CC1)c1ccccc1 [Example 8, (R)-5-(Furan-2-yl)-1-((4-hydroxy-1-(3-phenylbutanoyl)piperidin-4-yl)methyl)-4-phenylpyridin-2(1H)-one]
5 to 50 | C[C@H](CC(=O)N1CCC(O)(Cn2cc(-c3ccnn3C)c(-c3ccccc3)cc2=O)CC1)c1ccccc1 [Example 9, (R)-1-((4-Hydroxy-1-(3-phenylbutanoyl)piperidin-4-yl)methyl)-5-(1-methyl-1H-pyrazol-5-yl)-4-phenylpyridin-2(1H)-one]
50 to 250 | C[C@H](CC(=O)N1CCC(O)(Cn2cc(-c3ccccc3)c(Cl)cc2=O)CC1)c1ccccc1 [Example 10, (R)-4-Chloro-1-((4-hydroxy-1 (3-phenylbutanoyl)piperidin-4-yl)methyl)-5-phenylpyridin-2(1H)-one]
50 to 250 | C[C@H](CC(=O)N1CCC(O)(Cn2cc(-c3ccccc3)c(N(C)C)cc2=O)CC1)c1ccccc1 [Example 11, (R)-4-(Dimethylamino)-1-((4-hydroxy-1-(3-phenylbutanoyl)piperidin-4-yl)methyl)-5-phenylpyridin-2(1H)-one]
